In ChEMBL document CHEMBL1122711, “Design, synthesis, and testing of potential antisickling agents. 4. Structure-activity relationships of benzyloxy and phenoxy acids” (J Med Chem, 1984):

Legend:
[1] = human, 5000 µM
Description: Solubility ratio ([HbS+drug (5 mM)]/[HbS-drug])

[2] = human, 20000 µM
Description: Solubility ratio ([HbS+drug (20 mM)]/[HbS-drug]

[3] = human, 10000 µM
[4] = human, 40000 µM
Description: Solubility ratio ([HbS+drug (40 mM)]/[HbS-drug])

SMILES	Solubility ratio [1]	Solubility ratio [2]	Solubility ratio [3]	Solubility ratio [4]
O=C(O)COc1cccc(Cl)c1Cl	1.025	1.09	1.057	1.135
O=C(O)CSc1c(F)c(F)c(F)c(F)c1F	1.025	1.117	1.053	1.236
Cc1cc(Br)c(OCC(=O)O)c(Br)c1	1.077	1.139	1.043	1.284
Cc1ccc(COCC(=O)O)c(C)c1	1.05	1.163	1.054	1.325
O=C(O)COCc1cc(Cl)cc(Cl)c1	1.076	1.33	1.149	1.382
Cc1cc(C)cc(OCC(=O)O)c1	1.035	1.141	1.048	1.31
Cc1cc(C)cc(COCC(=O)O)c1	1.01	1.129	1.031	1.315
Cc1cc(OCC(=O)O)cc(C)c1Br	0.996	1.063	1.004	1.092
Cc1ccc(C)c(OCC(=O)O)c1	1.031	1.114	1.055	1.248
O=C(O)COc1ccc2c(c1)oc1ccccc12	1.033	1.09	1.054	1.185
O=C(O)COCc1ccc(Oc2ccccc2)cc1	1.034	1.165	1.088	1.162
O=C(O)COc1ccc2c(c1)Cc1ccccc1-2	1.029	1.067	1.042	1.113
COc1cc(OC)cc(OCC(=O)O)c1	1.03	1.12	1.052	1.232
O=C(O)COc1ccc(Cl)c(Cl)c1	1.061	1.234	1.117	1.339
CC(C)(Oc1ccc(Cl)cc1)C(=O)Oc1ccccc1C(=O)O	1.022	1.153	1.044	1.109
Cc1ccc(COCC(=O)O)cc1C	1.06	1.142	1.086	1.289
COc1cc(OCC(=O)O)cc(OC)c1OC	0.987	1.015	1.013	1.047
O=C(O)COc1ccc([N+](=O)[O-])cc1	0.983	1.329	1.043	1.344
Cc1cc(OCC(=O)O)ccc1Cl	1.05	1.171	1.08	1.275
O=C(O)COc1ccc(Cl)cc1	1.04	1.163	1.08	1.287
O=C(O)CCOCc1ccc(Cl)c(Cl)c1	1.062	1.305	1.142	1.395
O=C(O)COCc1ccc(Cl)c(Cl)c1	1.083	1.309	1.162	1.32
COc1ccc(COCC(=O)O)cc1	0.996	1.054	1.012	1.149
C=CCc1ccc(OCC(=O)O)c(OC)c1	1.033	1.141	1.043	1.245
Cc1cc(C)c(COCC(=O)O)c(C)c1	1.031	1.163	1.054	1.31
COc1cc(COCC(=O)O)ccc1C	1.034	1.145	1.081	1.248
O=C(O)C(CCOc1ccc(Br)cc1)C(=O)O	1.057	1.323	1.134	1.36
COc1cccc(OCC(=O)O)c1OC	1.017	1.064	1.036	1.144
CC(C)(C)c1ccc(OCC(=O)O)cc1	1.004	1.058	1.012	–

Now from value to compound:

Solubility ratio [1]	Solubility ratio [2]	Solubility ratio [3]	Solubility ratio [4]	SMILES
1.006	1.076	1.031	1.174	Nc1ccc(CSCC(=O)O)cc1
1.049	1.18	1.093	1.317	O=C(O)COc1ccc(Br)cc1
1.039	1.236	1.09	1.35	O=C(O)COCc1ccc(I)cc1
1.065	1.206	1.104	1.396	O=C(O)COCc1ccc(Cl)cc1
1.017	1.137	1.059	1.304	Cc1ccc(COCC(=O)O)cc1
1.018	1.07	1.032	1.12	O=C(O)CSc1cc(Cl)c(Cl)cc1Cl
1.023	1.113	1.063	1.261	O=C(O)CSc1ccc(Br)cc1
1.035	1.16	1.027	1.223	CSc1ccc(OCC(=O)O)cc1
1.024	1.131	1.053	1.307	O=C(O)CSCc1ccc(Br)cc1
1.062	1.233	1.121	1.311	COc1cc(Cl)ccc1COCC(=O)O
1.04	1.09	1.046	1.176	O=C(O)COc1ccc(I)cc1
1	1.113	1.01	1.145	Nc1ccc(OCC(=O)O)cc1
1.026	1.168	1.069	1.296	O=C(O)CSc1ccc(Cl)cc1
1.059	1.233	1.118	1.398	O=C(O)COCc1ccc(Br)cc1
